The results in this text go back to patent publication US20250230193A1, “CYCLIC COMPOUND HAVING SELECTIVE KRAS INHIBITORY EFFECT ON HRAS AND NRAS” (CHUGAI SEIYAKU KABUSHIKI KAISHA, priority 2022, published 2025).

The structures appear in SMILES notation.

The target of assay [1] is GDP-bound NRAS wild-type protein (Homo sapiens, UniProt P01111). Kind of assay: Binding to NRAS by surface plasmon resonance (SPR), Single Cycle Kinetics. Conditions: SPR; for NRAS/KRAS (ratio of KD value for NRAS to KD value for KRAS) / NRAS/KRAS (ratio of KD value with respect to NRAS to KD value with respect to KRAS): GDP-bound NRAS wild-type vs GDP-bound KRAS wild-type.
Sequence of GDP-bound NRAS wild-type protein (P01111 whole entry): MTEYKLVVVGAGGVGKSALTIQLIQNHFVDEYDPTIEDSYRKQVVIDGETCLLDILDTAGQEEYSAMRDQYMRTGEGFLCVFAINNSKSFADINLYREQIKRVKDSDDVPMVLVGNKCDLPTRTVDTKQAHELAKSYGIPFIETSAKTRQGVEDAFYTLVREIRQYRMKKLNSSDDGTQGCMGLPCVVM

The target in assay [2] is GDP-bound HRAS wild-type protein (Homo sapiens, UniProt P01112). Briefly: Binding to HRAS by surface plasmon resonance (SPR), Single Cycle Kinetics. Conditions: SPR; for HRAS/KRAS (ratio of KD value for HRAS to KD value for KRAS) / HRAS/KRAS (ratio of KD value with respect to HRAS to KD value with respect to KRAS): GDP-bound HRAS wild-type vs GDP-bound KRAS wild-type. (SPR reads the build-up and loss of mass on a sensor chip optically.)
Sequence of GDP-bound HRAS wild-type protein (P01112 whole entry): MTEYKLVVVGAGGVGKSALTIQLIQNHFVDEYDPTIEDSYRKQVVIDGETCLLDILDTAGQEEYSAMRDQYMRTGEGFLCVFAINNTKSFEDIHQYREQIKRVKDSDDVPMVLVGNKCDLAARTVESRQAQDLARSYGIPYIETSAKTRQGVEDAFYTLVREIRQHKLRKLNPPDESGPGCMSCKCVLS

With `CCCN(C)C(=O)[C@@H]1CC(=O)N(C)[C@@H](CC2CC2)C(=O)N[C@@H]([C@@H](C)CC)C(=O)N(C)CC(=O)N(C)[C@H]2C/C=C\CCN(C2=O)[C@@H](Cc2ccc(C(F)(F)F)cc2)C(=O)N(C)CC(=O)N[C@@H](CCc2cc(F)c(C(F)(F)F)c(F)c2)C(=O)N2C[C@H](F)C[C@H]2C(=O)NC2(CC(C)(C)C2)C(=O)N(C)[C@@H](C2CCCC2)C(=O)N1C` [PP1665], the “NRAS/KRAS (ratio of KD value for NRAS to KD value for KRAS)” value in assay [1] is “AA (a compound having 20 or more is denoted as AA)”. Further, in assay [2], the “HRAS/KRAS (ratio of KD value for HRAS to KD value for KRAS)” value is “A (a compound having 10 or more and less than 20 is denoted as A)”.

As for `CCO[C@@H]1C[C@H]2C(=O)NC3(CC(C)(C)C3)C(=O)N(C)[C@@H](C3CCCC3)C(=O)N(C)[C@H](C(=O)N(C)C)CC(=O)N(C)[C@@H](CC(C)C)C(=O)N[C@@H]([C@@H](C)CC)C(=O)N(C)CC(=O)N(C)[C@H]3C/C=C\CCN(C3=O)[C@@H](Cc3ccc(C(F)(F)F)cc3)C(=O)N(C)CC(=O)N[C@@H](CCc3cc(F)c(C(F)(F)F)c(F)c3)C(=O)N2C1` [PP1650, (2S,8S,12R,14S,20S,23S,27S,30S,36S,38Z)-20-cyclopentyl-8-[2-[3,5-difluoro-4-(trifluoromethyl)phenyl]ethyl]-12-ethoxy-27-isobutyl-N,N,3′,3′,4,19,22,26,32,35-decamethyl-30-[(1S)-1-methylpropyl]-3,6,9,15,18,21,25,28,31,34,42-undecaoxo-2-[[4-(trifluoromethyl)phenyl]methyl]spiro[1,4,7,10,16,19,22,26,29,32,35-undecazatricyclo[34.5.1.0^10,14]dotetracont-38-ene-17,1′-cyclobutane]-23-carboxamide], the “NRAS/KRAS (ratio of KD value for NRAS to KD value for KRAS)” value in assay [1] is “A (a compound having 10 or more and less than 20 is denoted as A)”. Further, in assay [2], the “HRAS/KRAS (ratio of KD value for HRAS to KD value for KRAS)” value is “A (a compound having 10 or more and less than 20 is denoted as A)”.

`CCO[C@@H]1C[C@H]2C(=O)NC3(CCC3)C(=O)N(C)[C@@H](C3CCCC3)C(=O)N(CCc3ccccc3)[C@H](C(=O)N3CCOCC3)CC(=O)N(C)[C@@H](CC(C)C)C(=O)N[C@@H]([C@@H](C)CC)C(=O)N(C)CC(=O)N(C)[C@H]3CCCCCN(C3=O)[C@@H](Cc3ccc(C(F)(F)F)cc3)C(=O)N(C)CC(=O)N[C@@H](CCc3cc(F)c(C(F)(F)F)c(F)c3)C(=O)N2C1` [PP0642]: the “NRAS/KRAS (ratio of KD value with respect to GDP-bound NRAS wild-type protein to KD value with respect to KRAS)” value in assay [1] is “B (a compound having 3 or more and less than 10 is denoted as B)”. Moreover, the “HRAS/KRAS (ratio of KD value with respect to GDP-bound HRAS wild-type protein to KD value with respect to KRAS)” value in assay [2] was “B (a compound having 3 or more and less than 10 is denoted as B)”.

For `CCC[C@H]1C(=O)N[C@@H](C2CCCC2)C(=O)N(C)CC(=O)N(C)[C@H]2C/C=C\CCN(C2=O)[C@@H](Cc2ccc(C(F)(F)F)cc2)C(=O)N(C)CC(=O)N[C@@H](CCc2ccc(C(F)(F)F)c(Cl)c2)C(=O)N2CC3(CC3)C[C@H]2C(=O)NC2(CC(C)(C)C2)C(=O)N(C)[C@@H](C2CCCC2)C(=O)N(C)[C@H](C(=O)N(C)C)CC(=O)N1C` [PP2986], the “NRAS/KRAS (ratio of KD value with respect to GDP-bound NRAS wild-type protein to KD value with respect to KRAS)” value in assay [1] (GDP-bound wild-type proteins) was “AA (a compound having 20 or more is denoted as AA)”. Besides, the “HRAS/KRAS (ratio of KD value with respect to GDP-bound HRAS wild-type protein to KD value with respect to KRAS)” value in assay [2] (GDP-bound wild-type proteins) is “A (a compound having 10 or more and less than 20 is denoted as A)”.

`CCO[C@@H]1C[C@H]2C(=O)NC3(CCCC3)C(=O)N(C)[C@@H](C3CCCC3)C(=O)N(C)[C@H](C(=O)N3CCOCC3)CC(=O)N(C)[C@@H](CC(C)C)C(=O)N[C@@H]([C@@H](C)CC)C(=O)N(C)CC(=O)N(C)[C@H]3CCCCN(C3=O)[C@@H](Cc3ccc(C(F)(F)F)cc3)C(=O)N(C)CC(=O)N[C@@H](CCc3cc(F)c(C(F)(F)F)c(F)c3)C(=O)N2C1` [PP0554]: the “NRAS/KRAS (ratio of KD value with respect to GDP-bound NRAS wild-type protein to KD value with respect to KRAS)” value in assay [1] was “B (a compound having 3 or more and less than 10 is denoted as B)”. In addition, in assay [2], the “HRAS/KRAS (ratio of KD value with respect to GDP-bound HRAS wild-type protein to KD value with respect to KRAS)” value was “B (a compound having 3 or more and less than 10 is denoted as B)”.

Regarding `CCO[C@H](C)[C@@H]1NC(=O)[C@H](CC(C)C)N(C)C(=O)C[C@@H](C(=O)N(C)CC)N(C)C(=O)[C@H](C2CCCC2)N(C)C(=O)C2(CC(C)(C)C2)NC(=O)[C@@H]2C[C@H](C)CN2C(=O)[C@H](CCc2ccc(C(F)(F)F)c(OC)c2)NC(=O)CN(C)C(=O)[C@H](Cc2ccc(C)cc2)N2CC/C=C\C[C@@H](C2=O)N(C)C(=O)[C@@H]2CCCN2C1=O` [PP2419], in assay [1], the “NRAS/KRAS (ratio of KD value with respect to NRAS to KD value with respect to KRAS)” value was “A (a compound having 10 or more and less than 20 is denoted as A)”. Also, the “HRAS/KRAS (ratio of KD value with respect to HRAS to KD value with respect to KRAS)” value in assay [2] is “A (a compound having 10 or more and less than 20 is denoted as A)”.

For the compound `CCOC[C@H]1C(=O)N[C@@H]([C@@H](C)CC)C(=O)N(C)CC(=O)N(C)[C@H]2C/C=C\CCN(C2=O)[C@@H](Cc2ccc(C)cc2)C(=O)N(C)CC(=O)N[C@@H](CCc2ccc(C(F)(F)F)c(Cl)c2)C(=O)N2C[C@H](OCC)C[C@H]2C(=O)NC2(CC(C)(C)C2)C(=O)N(C)[C@@H](C2CCCC2)C(=O)N(C)[C@H](C(=O)N(C)C)CC(=O)N1C` [PP2395], in assay [1], the “NRAS/KRAS (ratio of KD value with respect to NRAS to KD value with respect to KRAS)” value is “A (a compound having 10 or more and less than 20 is denoted as A)”. Besides, the “HRAS/KRAS (ratio of KD value with respect to HRAS to KD value with respect to KRAS)” value in assay [2] is “B (a compound having 3 or more and less than 10 is denoted as B)”.
